Patent US20060160897A1, “Topical Use of Valproic Acid for the Prevention or Treatment of Skin Disorders” (priority 2003, published 2006)

Experiments:
HaCaT cells [1] = experiment: Apoptosis assay, flow cytometry of Sub-G1 DNA containing cells; format: cell-based, human; details: drugs day 1, assay day 2, combinations VPA 1 mM + Tazarotene 1 or 2 μM, FIG. 5
Experimental: Apoptosis assays: Apoptosis was measured by a Beckton Dickinson FACScalibur flow cytometer by analysing the percentage of Sub-G1 DNA containing cells. 10000 events were recorded for each sample. The amplification scale was linear for all parameters. Photomultiplier tension was set as to place the peak DNA content corresponding cells in G0/G1 at channel 300 in the FL2-H vs SCC—H graphs. Cells showing a less than peak DNA content (hypodiploid cells) and high SSC—H (granular high condensed cells) were regarded as apoptotic. The experiments were repeated three times in duplicate. Error bars represent 1 standard deviation.
Cells were plated in 35 mm diameter wells on day 0. Drugs were added on day 1. The apoptosis assay was carried out on day 2. […] Thus, the combinatorial activity of these two drugs must be explained via synergistic activity of this treatment.

HaCaT cells [2] = experiment: BrdU incorporation assay; format: cell-based, human; details: VPA added day 0, assay day 2, FIG. 4
Experimental: BrdU incorporation assays: Cell proliferation was detected by labeling cells with BrdU. […] Cells were incubated for 1 hour in the culture medium and then fixed with 70% ethanol. The incorporated BrdU was detected by the indirect immunoperoxidase method (Amersham, Arlington Heights, Ill.). Briefly, the culture cells were first incubated for 1 hour with Biotin-Mouse Anti-BrdU antibody. After washing in TTBS buffer (20 mM Tris, 500 mM NaCl, 0.05% Tween-20, pH 7.5), the cells were further incubated with Biotinylated goat anti-mouse immunoglobulins for 10 min. Cells were then washed and incubated with enzyme (peroxidase) conjugate for 10 min at room temperature. […] The positive cells were counted on 10 randomly picked microscopic fields. HaCaT cells were plated in 35 mm diameter wells on day 0. […] The BrdU assay was carried out on day 2.

histone H4 acetylation [3] = experiment: Immunohistochemistry of acetylated H4 after topical application to mouse skin; format: in vivo; details: athymic nude mice, VPA topically applied at 3% (w/w) vs placebo; FIGS. 8 and 9
Experimental: (§1) Cryostat skin sections of 3 μm thickness were fixed in acetone at room temperature for 10 min. Before staining with anti-acetylated H4 antibody (clone T25, see above) the tissue was blocked by preincubation with F(ab′)2 fragments derived from goat anti-mouse immunoglobulin (Cappel) ( 1/10000 dilution in 50 mM Tris buffered saline, TBS) for 30 min. After rinsing with TBS for 10 min, the sections were incubated with anti-acetylated H4 antibody (clone T25) ( 1/4000 dilution in TBS) at room temperature for 1 hour. Then, the specimens were incubated with the rabbit anti-mouse serum and treated with APAAP (alkaline phosphatase anti-alkaline phosphatase) immunocomplex as described above. The positive staining was developed in red color with naphthol-AS-BI phosphate as a substrate, and New Fuchsin (Dako) as a chromogen. Pictures were taken with a digital camera connected to a light microscopy apparatus.
(§2) Skin biopsies were frozen in liquid nitrogen immediately after excision. Immunohistochemistry was then performed on 3 μm sections as described in methods. Biopsies of skin topically treated with Placebo or VPA were processed in parallel, pictures were taken with a light microscopy apparatus connected to a digital camera under the same light intensity.

histone H4 acetylation [4] = experiment: Immunohistochemistry of acetylated H4 after topical application to BCC lesions of patients; format: in vivo, human; details: VPA 3% (w/w) topically 16-20 hours before surgical excision vs placebo; FIG. 10
Experimental: as §1, §2

inflammatory cytokines [5] = experiment: Semiquantitative RT-PCR of cytokine mRNA, LPS stimulated keratinocytes; format: cell-based, human; details: HaCaT, 200 nM TSA or 5 mM VPA 4 hours, then LPS 100 ng/ml 24 hours, FIG. 12A
Experimental: Human immortalized keratinocytes (HaCaT cells) were seeded at a density of 2.5 million cells per ml into 75 cm^2 flasks. […] After 24 hours at 37° C. cells were lysed and total RNA was isolated using the RNeasy mini kit from Qiagen.
(§3) One microgram of total RNA was transcribed to cDNA by standard methods using reverse transcriptase and an oligo-dT primer (Invitrogen). For semiquantitative PCR, 2 μl of cDNA was amplified by PCR using specific primers. Primers for PCR were synthesized by MWG and are as follows: […]

inflammatory cytokines [6] = experiment: Semiquantitative RT-PCR of cytokine mRNA, PMA/Ion stimulated peripheral blood lymphocytes; format: cell-based, human; details: PBLs preincubated 2 hours, PMA/Ion 24 hours; FIGS. 12B, 13
Experimental: Monocyte and macrophage depleted peripheral blood mononuclear cells were obtained from consenting adults via separation using Ficoll-Hypaque. The peripheral blood mononuclear cells (PBMC) fraction was washed and seeded in 9 cm petri dishes. After an incubation of 2 hours at 37° C. to remove most of the monocytes, macrophages, and B-cells, the non-adherent cells were collected and cultured in 175 cm^2 flasks for 2 days. Cells were harvested and adjusted to 3 million cells per ml. Aliquots of 500 μl were transferred to each well of 24-well flat bottom plates. Peripheral blood lymphocytes (PBL's) were treated with various concentrations of HDAC inhibitors as indicated. After a 2 hours incubation time at 37° C. cells were stimulated with phorbol 12-myristate 13-acetate (PMA)/ionomycin (Ion) or activated via T cell receptor (TCR/CD3) complex with 10 μg/ml anti-CD3 mAb (OKT3) and 2.5 μg/ml anti-CD28 mAb. After 24 hours at 37° C. the supernatant was removed and frozen for cytokine assays. Cell pellets were lysed and total RNA was isolated using the RNeasy mini kit from Qiagen.
as §3

[7] = system: acetylated histones H3 and H4 and HDAC-2; experiment: Western blot of peripheral blood cells from patients treated with VPA intravenously (Phase I/II study); format: in vivo, human; details: before, 6 h, 24 h, 48 h after start, FIG. 18
Experimental: Whole cell extracts were prepared by lysis of cells in RIPA buffer including protease inhibitors. Lysates were separated by SDS gel electrophoresis and transferred onto PVDF membranes. Acetylated histones H3 and H4 and the marker gene HDAC-2 were detected by western blot analysis using an anti-acetylated H3 antibody (Upstate, #06-942), an anti-acetylated H4 antibody (clon T25; patent application EP 02.021984.6), and an anti-HDAC-2 antibody (SCBT, SC-7899). As an equal loading control PVDF membranes were stained with Coomassie (FIG. 18).

mouse embryos = details: mice, when properly dosed; cited from earlier work
[8] = vs untreated stimulated control

## CCCC(CCC)C(=O)O [VPA, 2-propyl-pentanoic acid]
HaCaT cells [1]
  apoptosis (Sub-G1 DNA containing cells): clear increase in subG1 DNA content
HaCaT cells [2]
  BrdU positive cells (cell cycle arrest): dose-dependent reduction of BrdU positive cells
Histone H4 acetylation [3]
  histone H4 acetylation in skin cells: clear increase of histone H4 acetylation
Histone H4 acetylation [4]
  histone H4 acetylation in BCC cells and normal skin cells of patients: clear increase of histone H4 acetylation
Inflammatory cytokines [5]
  IFN-γ mRNA transcript: significantly reduced
Inflammatory cytokines [5]; [8]
  IL-6 mRNA level: significant decrease
  TNF-α mRNA level: significant decrease
Inflammatory cytokines [6]
  IL-4 mRNA transcripts: significantly reduced
  IL-6 mRNA transcripts: decreased IL-6 mRNA back to the level seen in the unstimulated sample
[7]
  HDAC-2 protein in peripheral blood cells: down-regulation of the marker protein HDAC-2
  histone H3 and H4 acetylation in peripheral blood cells: Histone H3 and H4 hyperacetylation
Mouse embryos
  teratogenicity: teratogenic in the majority of mouse embryos
